US20230054887A1, “SWEETENING AND TASTE-MASKING COMPOSITIONS, PRODUCTS AND USES THEREOF” (HEALTHTECH BIO ACTIVES, S.L.U., priority 2017, published 2023)
Where “and” joins values, the source holds several entries; their conditions need not be identical. Equal entries are not always repeated.

Experiments:
Assay type in all cases: in vivo
[1] = Sugar (HFCS) substitution in orange soft drink, triangular test by calibrated panel; conditions: orange soft drink sweetened with HFCS
Experimental: A reference orange soft drink sweetened with high fructose corn syrup (HFCS) was prepared, using the ingredients listed in Table 9 (Formula 1). All the percentages in the table are by weight.
For preparing the beverages, the following process was followed. The high fructose corn syrup was weighed in a 1 L beaker. The remaining minor ingredients (sodium benzoate, potassium sorbate, citric acid, orange soda colour and orange soda flavour) were separately weighed in small beakers, and water was added to each of the small beakers and mixed until solubilizing each ingredient. Once dissolved, all those minor ingredients were added to the 1 L beaker with the HFCS. The obtained solution was thoroughly mixed and water was added gradually to 1 Kg.
For assaying the possible substitution of HFCS with NHDC and with the composition of the present invention (Example B), a 0.1% mother solution of NHDC in water was prepared by gradually adding 0.1 g of NHDC to 99.9 g of water, mixing, and heating to 66° C. during 15 minutes until a yellowish solution was obtained; the solution was then left to cool to room temperature. […]
Maximum sugar substitution with NHDC was then determined by replacing increasing amounts of HFCS by NHDC and then passing the reference and the prototype through a triangular test by a calibrated panel.

[2] = Sweetening synergy sensory test: concentration equisweet to sucrose reference solutions in water, expert panel; conditions: for Relative sweetening power: ratio sucrose concentration / equisweet concentration; for Equisweet concentration: room temperature
Experimental: A sensory test was performed to assess the sweetening synergism achieved with the composition of the invention (Examples A and B), and this effect was also compared to the effect obtained with analogous compositions containing beta-cyclodextrin (Comparative Examples A and B). Further compositions of the present invention (Examples C, D and E) were also assessed in this sensory test.
A group of expert panellists in sweet descriptors evaluated the sweetness of the different compositions as well as that of the ingredients NHDC, beta-cyclodextrin and gamma-cyclodextrin used alone.
Each evaluated sweetening agent was dissolved in water at different concentrations, at room temperature. The panel then determined, for each product, the concentration that was equisweet to the reference solutions of 1% and 3% sucrose in water. The results are summarized in Table 3 (Examples A and B are abbreviated as Ex. A and Ex. B, respectively, and the Comparative Examples A and B are abbreviated as Comp. A and Comp. B, respectively).
Since beta- and gamma-cyclodextrins are also sweet compounds, the equisweet concentrations of both cyclodextrins were also determined by the test panel to assess their possible contribution to the sweetness of the composition. […] Therefore, as the equisweet concentrations of both cyclodextrins are at least three orders of magnitude larger than those of NHDC, it was concluded that their contribution to the sweetness was negligible.
A more quantitative evaluation of the sweetness synergy provided by the compositions of the present invention was performed by comparing the real measured sweetness of the compositions comprising gamma-cyclodextrin and NHDC with the theoretical sweetness expected from the sum of the individual contribution of each component in the composition.
To this end, the relative sweetening power of each component was first calculated. For comparative purposes, the relative sweetening power of beta-cyclodextrin was also calculated. The relative sweetening power of a given compound, at a given sweetness level, indicates how many times sweeter this compound is than sucrose. It is therefore calculated as the ratio between the concentration of sucrose and the equisweet concentration of each ingredient, for each sweetness level.
From the relative sweetening power of each ingredient, it is possible to calculate the expected sweetness (sucrose equivalence) of a blend of those ingredients, according to Formula I:
Expected sweetness (sucrose equivalence) of a blend C1+C2=Concentration of compound C1×relative sweetening power of compound C1+Concentration of compound C2×relative sweetening power of compound C2
Then, the sweetness synergy of a blend of components can be calculated according to Formula II: […]
As disclosed above in Example 3, the relative sweetening power of a given compound, at a given sweetness level, indicates how many times sweeter than sucrose the compound is, and the value is calculated as the ratio between the concentration of sucrose and the equisweet concentration of the compound.

[3] = Sucrose substitution in orange juice based soft drink, triangular testing by calibrated panel
Text: The purpose of this example was to maximize the sugar substitution in an orange juice based soft drink while maintaining the same overall taste profile. A calibrated panel was not able to distinguish the reference from the different prototypes in triangular testing.
The reference product (Formula 1 of Table 10) contained 10% added sucrose. The maximum sucrose substitution achieved with NHDC was 15% out of the initial 10 by using 10 ppm of NHDC (Formula 2 of Table 10). With the sweetening composition of the present invention, it was possible to increase the sucrose substitution, up to 25% without changing the taste profile of the beverage (Formula 3 of Table 10).
The composition of each beverage is disclosed in Table 10. For the preparation of these beverages, an orange juice concentrate 65° Bx (Dallant) and orange flavor #2N341/C (Dallant) were used. All the percentages in the table are by weight.

[4] = Sugar substitution in sweetened dark chocolate, calibrated panel
Text: The percentages in the table are expressed by weight.
The reference product (Formula 1 of Table 11) contained a commercial chocolate with 70% cacao content (Lindt®) and 6% of powdered sugar.
Along all the assays performed, the goal was to maximize the sucrose substitution while maintaining the same overall taste profile. A calibrated panel was not able to distinguish the reference from the different prototypes tested.
The method used for preparing the dark chocolate products of this assay was as follows. Firstly, 1% solution of NHDC in glycerol was prepared by gradually adding 1 g of NHDC to 99 g of glycerol, mixing and heating to 60° C. for 15 minutes, until a transparent solution is obtained. The solution was left to cool off to room temperature. The dark chocolate was weighed and heated to 45° C. and, when the chocolate was completely melted, powdered sugar was added and, optionally, also the 1% NHDC glycerol solution or the composition of Example B, and the mixture was then thoroughly mixed. The mixture was heated until reaching 45° C., then it was let to cool to 30° C., and then it was poured into molds (6 g/piece). The molds with the chocolate were put in the fridge for a quicker hardening.

COc1ccc(CCC(=O)c2c(O)cc(O[C@@H]3O[C@H](CO)[C@@H](O)[C@H](O)[C@H]3O[C@@H]3O[C@@H](C)[C@H](O)[C@@H](O)[C@H]3O)cc2O)cc1O [NHDC, 1-[4-[[2-O-(6-Deoxy-α-L-mannopyranosyl)-β-D-glucopyranosyl]oxy]-2,6-dihydroxyphenyl]-3-(3-hydroxy-4-methoxyphenyl)propan-1-one]
Amount needed to obtain 10% sugar substitution [1]: 10 ppm | Maximum sugar substitution without any noticeable difference in a triangular test [1]: 10% | Relative sweetening power ([2]; 1% sucrose level): 2000 | NHDC amount contained in the equisweet concentration ([2]; 1% sucrose sweetness level): (5.0) ppm | Relative sweetening power ([2]; 3% sucrose level): 1250 | NHDC amount contained in the equisweet concentration ([2]; 3% sucrose sweetness level): (24.0) ppm | Equisweet concentration ([2]; equisweet to 1% sucrose in water): 5 ppm and 5.0 ppm | Equisweet concentration ([2]; equisweet to 3% sucrose in water): 24 ppm and 24.0 ppm | Amount used for the maximum sucrose substitution [3]: 10 ppm | Maximum sucrose substitution without changing the taste profile ([3]; reference with 10% added sucrose): 15% | Amount used for the maximum sugar substitution [4]: 3 ppm | Maximum sugar substitution without changing the taste profile ([4]; reference with 6% powdered sugar): 10%
